Measured values taken from US8017725B2, “Use of heparin-binding domain of fibronectin for diagnosis and treatment of cancer” (Novartis Forschungesstiftung Zweigniederlassung Friedrich …, priority 2001, dated 2011).

Legend:
[1] = system: CHO-B2α27 cells; assay: Adhesion assay (attachment on coated ECM substrata); assay type: cell-based, Chinese hamster; settings: CHO-B2α27, 20 h adhesion, ITS
Experimental: (§1) 60-well microtiter plates (Nunc) were coated with 10 μg/ml ECM molecules giving rise to 1 μg/cm^2 (fibronectin and tenascin-C) and 4 μg/cm^2 (FNIII13) for 1 h at 37° C. ECM proteins were coated separately, starting with fibronectin, followed by tenascin-C, FNIII13 and BSA. The non-coated plastic surface was blocked with 1% heat-inactivated BSA in PBS giving rise to 10 μg/cm^2 protein. Similarly, mixed substrata of collagen I and laminin 1, respectively with tenascin-C were prepared and tenascin-C was detected by ELISA.
(§2) Efficient fibronectin and tenascin-C coating was determined by ELISA with an anti-fibronectin and anti-tenascin-C antibody (Fischer, D. et al (1995) J Biol Chem 270: 3378-3384), respectively and by PAGE analysis of lysed surface-bound ECM material combined with Coomassie Brilliant Blue staining. Before plating, cells were serum starved for 18 h in DMEM containing 1×ITS (insulin, transferrin, selene) supplement, trypsinised, trypsin was blocked with 100 μg/ml soybean trypsin inhibitor in PBS and, cells were resuspended in serum-free medium and counted. 200-500 cells per well were plated for the indicated time points, fixed by addition of glutaraldehyde (2% final concentration) for 15 minutes and stained with 0.1% crystalviolet in 20% methanol for 30 minutes. Cells were observed under a Nikon microscope (Nikon diaphot) and pictures were taken with a Nikon camera.
(§3) The inventors tested whether expression of integrins capable of binding to fibronectin influences tenascin-C-induced compromised attachment on fibronectin. CHO-K1 cells (which express moderate levels of α5β1 (Bauer, J. S. et al (1992) J Cell Biol 116: 477-487)) were compared for levels of adhesion on fibronectin and other ECM substrates with that of cells that either express essentially no fibronectin binding integrins (CHO-B2), or overexpress α5β1 (CHO-B2α27) and αvβ1 (CHO-B2v7), respectively (Schreiner, C. et al (1991) Cancer Res 51: 1738-1740).

[2] = system: CHO-B2 cells; assay: as above; assay type: cell-based, Chinese hamster; settings: CHO-B2, 20 h adhesion, ITS
Experimental: as §1, §2, §3

[3] = system: CHO-K1 cells; assay: as above; assay type: cell-based, Chinese hamster; settings: CHO-K1, 20 h adhesion, ITS
Experimental: as §1, §2, §3

[4] = system: all cell lines tested; assay: DNA replication assay, all cell lines tested; assay type: cell-based
Experimental: (§4) 96-well plates (Falcon) were coated as described above. Cells were serum starved overnight and trypsinised as described. 10^4 cells were transferred onto the coated plates in the presence of the indicated mitogens. 14 h later cells were labelled with radioactive ^3H-thymidine (0.5 μCi/well) for 4 h at 37° C., incorporated ^3H-thymidine was precipitated with 10% TCA and determined with a Beckman scintillation counter after cell lysis in 0.3N NaOH, 2% SDS. For long-term cell proliferation assays 2×10^3 MDA-MB435 cells were plated into ECM-coated 96-well plates in the presence of 10 ng/ml insulin and incubated for the indicated time points in a humidified chamber at 37° C. in a CO^2-incubator. 50% fresh medium with growth factor was added every 24 h. At different time points cells were trypsinised and counted.
In order to address whether tenascin-C alone and in ECM contexts other than fibronectin might also enhance proliferation, an investigation was carried out into DNA synthesis on a pure tenascin-C substratum where cells remained rounded and, on mixed substrata of collagen I and laminin 1 that contained tenascin-C where cells spread normally. […] To rule out that tenascin-C may shorten S-phase of the cell cycle in tumour cells, DNA synthesis of T98G cells was determined by assay every two hours starting 11 h after plating. […]

[5] = system: CHO-B2α27 cells; assay: DNA replication assay (3H-thymidine incorporation); assay type: cell-based, Chinese hamster; settings: CHO-B2α27, ITS
Experimental: as §4
(§5) DNA replication was determined by ^3H-thymidine incorporation and is described as relative increase in cpm over cells plated on fibronectin. Serum starved cells were triggered to enter S-phase by 40 ng/ml PDGF-BB (a), 100 ng/ml insulin (b) and ITS (c).

[6] = system: CHO-B2 cells; assay: DNA replication assay (3H-thymidine incorporation); assay type: cell-based, Chinese hamster; settings: CHO-B2, ITS
Experimental: as §4, §5

[7] = system: CHO-K1 cells; assay: DNA replication assay (3H-thymidine incorporation); assay type: cell-based, Chinese hamster; settings: CHO-K1, ITS
Experimental: as §4, §5

[8] = system: T98G glioblastoma cells; assay: DNA replication assay (3H-thymidine incorporation); assay type: cell-based, human; settings: 40 ng/ml PDGF-BB
Experimental: as §4
(§6) Cell proliferation and DNA synthesis of MDA-MB435 breast carcinoma, T98G glioblastoma, and Chinese hamster ovary […] cells (CHO) grown on fibronectin, tenascin-C and on mixed fibronectin/tenascin-C substrata was determined. […] After 27 h, 51 h, and 75 h cells were counted. 24% and 33% more cells were counted on fibronectin/tenascin-C than on fibronectin after 51 h and 75 h of culturing, respectively. […]
(§7) DNA replication was determined by ^3H-thymidine incorporation and is described as relative increase in cpm over cells plated on fibronectin. […]

[9] = system: MDA-MB435 breast carcinoma cells; assay: DNA replication assay (3H-thymidine incorporation); assay type: cell-based, human; settings: MDA MB 435, 100 ng/ml insulin
Experimental: as §4, §6, §7

[10] = system: T98G glioblastoma cells; assay: Adhesion assay (attachment and spreading on coated ECM substrata); assay type: cell-based, human
Experimental: as §1, §2

[11] = system: tumour cell lines; assay: Adhesion assay on tumour cell lines; assay type: cell-based
Experimental: as §1
as §2, with “camera. […]” for “camera.”

[12] = system: MDA-MB435 breast carcinoma cells; assay: Adhesion assay (attachment on coated ECM substrata); assay type: cell-based, human
Experimental: as §1, §2

“TN: Full length chicken tenascin-C TN260, recombinant, expressed in HEK-293 cells, used as coated substratum” was tested, and the “numbers of attached cells” value [1] was 4.3 +/− 0.7 % of cells attached on fibronectin, the “numbers of attached cells” value [2] was 8.0 +/− 2.9 % of cells attached on fibronectin and the “numbers of attached cells” value [3] was 4.7 +/− 0.2 % of cells attached on fibronectin. For the same substance, the “DNA replication indices increase on pure tenascin-C” value [4] was at most 11 fold, the “DNA replication by 3H-thymidine incorporation” value [5] was 11 +/− 3.9 relative increase in cpm over cells plated on fibronectin and the “DNA replication by 3H-thymidine incorporation” value [6] was 7.1 +/− 0.2 relative increase in cpm over cells plated on fibronectin. The “DNA replication by 3H-thymidine incorporation” value [7] was 5.9 +/− 1.7 relative increase in cpm over cells plated on fibronectin, the “DNA replication by 3H-thymidine incorporation” value [8] was 3.0 +/− 0.9 relative increase in cpm over cells plated on fibronectin and the “DNA replication by 3H-thymidine incorporation” value [9] was 2.7 +/− 0.6 relative increase in cpm over cells plated on fibronectin. The “numbers of attached cells” value ([10]; 1 h attachment, serum free medium) was 9.3 +/− 0.9 % of cells attached on fibronectin, the “numbers of attached cells” value ([10]; 20 h adhesion, 40 ng/ml PDGF-BB) was 14.6 +/− 0.4 % of cells attached on fibronectin and the “cells attached on tenascin-C” value ([11]; 1 h after plating, all cell lines tested) was “less than 10%”. The “blocking of cell attachment on fibronectin” value ([11]; molar ratio of tenascin-C to fibronectin of 1:8) was “blocked cell attachment on fibronectin as efficiently as in an equimolar ratio”, the “numbers of attached cells” value ([12]; MDA MB 435, 1 h attachment, serum free medium) was 8.2 +/− 3.9 % of cells attached on fibronectin and the “numbers of attached cells” value ([12]; MDA MB 435, 20 h adhesion, 100 ng/ml insulin) was 4.0 +/− 0.2 % of cells attached on fibronectin.
